In general, Kd refers to the free concentration of one partner at which half of the binding sites on the other are occupied at equilibrium, for simple one-to-one binding.

The target of the assay is T1, SaGPN (Sulfolobus acidocaldarius, UniProt Q4J9A7).
T1 construct: gene Saci_1281; E. coli BL21(DE3) Rosetta; Y2-A240 built, 14 C-terminal residues disordered
T1 sequence (Q4J9A7 1-254): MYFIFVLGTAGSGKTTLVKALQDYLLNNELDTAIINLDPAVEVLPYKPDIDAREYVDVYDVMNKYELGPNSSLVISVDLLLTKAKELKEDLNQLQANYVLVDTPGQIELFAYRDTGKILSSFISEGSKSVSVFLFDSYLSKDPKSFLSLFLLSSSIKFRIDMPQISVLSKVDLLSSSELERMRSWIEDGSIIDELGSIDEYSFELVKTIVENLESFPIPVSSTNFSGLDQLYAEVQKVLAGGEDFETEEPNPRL
The assay is described as follows: isothermal titration calorimetry. It is filed as binding. For orientation: ITC needs no label: the signal is the heat of the interaction.
`Nc1nc2c(ncn2[C@@H]2O[C@H](COP(=O)(O)OP(=O)(O)O)[C@@H](O)[C@H]2O)c(=O)[nH]1` [GDP] gave a Kd of 6.15 nM.
Molecule `Nc1nc2c(ncn2[C@@H]2O[C@H](COP(=O)(O)OP(=O)(O)OP(=O)(O)O)[C@@H](O)[C@H]2O)c(=O)[nH]1` [GTP] showed a Kd of 2.2 nM.
In the case of `Nc1nc2c(ncn2[C@@H]2O[C@H](COP(=O)(O)OP(=O)(O)NP(=O)(O)O)[C@@H](O)[C@H]2O)c(=O)[nH]1` [GppNHp] it was 22 nM.

The values are drawn from paper PMC10746158, “Archaeal GPN-loop GTPases involve a lock-switch-rock mechanism for GTP hydrolysis” (mBio, 2023).
